Assay results: ChEMBL document CHEMBL5579851, “Synthesis and antifungal evaluation of novel triazole derivatives bearing a pyrazole-methoxyl moiety” (Eur J Med Chem, 2024)
In brackets after ≈: the same amount, converted by molar mass.

Experiments:
Format in all cases: functional
[1] = system: Pichia kudriavzevii; assay: Antifungal activity against Candida krusei 4996 assessed as inhibition of fungal growth incubated for 48 hrs by CLSI based broth microdilution assay
[2] = system: Candida albicans; assay: Antifungal activity against Candida albicans 10231 assessed as inhibition of fungal growth incubated for 48 hrs by CLSI based broth microdilution assay
[3] = system: Candida tropicalis; assay: Antifungal activity against Candida tropicalis 8915 assessed as inhibition of fungal growth incubated for 48 hrs by CLSI based broth microdilution assay
[4] = system: Candida albicans; assay: Antifungal activity against Candida albicans SC5314 assessed as inhibition of fungal growth incubated for 48 hrs by CLSI based broth microdilution assay
[5] = system: Candida parapsilosis; assay: Antifungal activity against Candida parapsilosis 22019 assessed as inhibition of fungal growth incubated for 48 hrs by CLSI based broth microdilution assay; settings: Lodderomyces parapsilosis
[6] = system: Cryptococcus neoformans; assay: Antifungal activity against Cryptococcus neoformans 32609 assessed as inhibition of fungal growth incubated for 72 hrs by CLSI based broth microdilution assay
[7] = system: Nakaseomyces glabratus; assay: Antifungal activity against Candida glabrata 537 assessed as inhibition of fungal growth incubated for 48 hrs by CLSI based broth microdilution assay
[8] = system: [Candida] auris; assay: Antifungal activity against fluconazole-resistant Candida auris 919 assessed as inhibition of fungal growth incubated for 48 hrs by CLSI based broth microdilution assay; settings: Candidozyma auris
[9] = system: [Candida] auris; assay: Antifungal activity against fluconazole-resistant Candida auris 891 assessed as inhibition of fungal growth incubated for 48 hrs by CLSI based broth microdilution assay; settings: Candidozyma auris
[10] = system: Candida albicans; assay: Antifungal activity against fluconazole-resistant Candida albicans 901 assessed as inhibition of fungal growth incubated for 48 hrs by CLSI based broth microdilution assay
[11] = system: Candida albicans; assay: Antifungal activity against fluconazole-resistant Candida albicans 904 assessed as inhibition of fungal growth incubated for 48 hrs by CLSI based broth microdilution assay
[12] = system: [Candida] auris; assay: Antifungal activity against fluconazole-resistant Candida auris 918 assessed as inhibition of fungal growth incubated for 48 hrs by CLSI based broth microdilution assay; settings: Candidozyma auris

MIC [1] [µg/mL] | MIC [2] [µg/mL] | MIC [3] [µg/mL] | MIC [4] [µg/mL] | MIC [5] [µg/mL] | MIC [6] [µg/mL] | MIC [7] [µg/mL] | Compound | MIC [8] [µg/mL] | MIC [9] [µg/mL] | MIC [10] [µg/mL] | MIC [11] [µg/mL] | MIC [12] [µg/mL]
8 (≈ 16.8 µM) | 0.25 (≈ 0.526 µM) | 0.25 (≈ 0.526 µM) | ≤ 0.125 | 0.5 (≈ 1.05 µM) | 0.5 (≈ 1.05 µM) | 0.25 (≈ 0.526 µM) | C[C@@H](OCc1ccn(Cc2cccc(F)c2F)n1)[C@](O)(Cn1cncn1)c1ccc(F)cc1F |  |  |  |  | 
4 (≈ 9.1 µM) | 0.5 (≈ 1.14 µM) | 32 (≈ 72.8 µM) | 0.5 (≈ 1.14 µM) | 0.5 (≈ 1.14 µM) | 0.25 (≈ 0.569 µM) | 0.25 (≈ 0.569 µM) | C[C@@H](OCc1ccn(Cc2ccccc2)n1)[C@](O)(Cn1cncn1)c1ccc(F)cc1F |  |  |  |  | 
4 (≈ 7.87 µM) | 0.25 (≈ 0.492 µM) | 32 (≈ 62.9 µM) | 0.25 (≈ 0.492 µM) | 0.25 (≈ 0.492 µM) | 0.5 (≈ 0.984 µM) | 1 (≈ 1.97 µM) | C[C@@H](OCc1ccn(Cc2ccc(Cl)cc2Cl)n1)[C@](O)(Cn1cncn1)c1ccc(F)cc1F |  |  |  |  | 
8 (≈ 17 µM) | 0.25 (≈ 0.532 µM) | > 64 | ≤ 0.125 | 1 (≈ 2.13 µM) | 0.5 (≈ 1.06 µM) | 0.5 (≈ 1.06 µM) | COc1ccc(Cn2ccc(CO[C@H](C)[C@](O)(Cn3cncn3)c3ccc(F)cc3F)n2)cc1 |  |  |  |  | 
16 (≈ 33.7 µM) | 0.5 (≈ 1.05 µM) | 0.25 (≈ 0.526 µM) | ≤ 0.125 | 0.5 (≈ 1.05 µM) | 0.5 (≈ 1.05 µM) | 0.5 (≈ 1.05 µM) | C[C@@H](OCc1ccn(Cc2c(F)cccc2F)n1)[C@](O)(Cn1cncn1)c1ccc(F)cc1F |  |  |  |  | 
4 (≈ 8.74 µM) | ≤ 0.125 | 64 (≈ 140 µM) | ≤ 0.125 | 0.5 (≈ 1.09 µM) | 0.25 (≈ 0.547 µM) | 0.25 (≈ 0.547 µM) | C[C@@H](OCc1ccn(Cc2cccc(F)c2)n1)[C@](O)(Cn1cncn1)c1ccc(F)cc1F |  |  |  |  | 
8 (≈ 17.6 µM) | 0.25 (≈ 0.551 µM) | > 64 | ≤ 0.125 | 0.5 (≈ 1.1 µM) | 0.5 (≈ 1.1 µM) | 1 (≈ 2.21 µM) | Cc1ccccc1Cn1ccc(CO[C@H](C)[C@](O)(Cn2cncn2)c2ccc(F)cc2F)n1 |  |  |  |  | 
4 (≈ 8.41 µM) | 0.25 (≈ 0.526 µM) | 0.25 (≈ 0.526 µM) | ≤ 0.125 | 0.5 (≈ 1.05 µM) | 0.5 (≈ 1.05 µM) | 0.25 (≈ 0.526 µM) | C[C@@H](OCc1ccn(Cc2ccc(F)cc2F)n1)[C@](O)(Cn1cncn1)c1ccc(F)cc1F |  |  |  |  | 
2 (≈ 3.82 µM) | 0.25 (≈ 0.478 µM) | 0.5 (≈ 0.955 µM) | 0.25 (≈ 0.478 µM) | 0.5 (≈ 0.955 µM) | 0.5 (≈ 0.955 µM) | 2 (≈ 3.82 µM) | C[C@@H](OCc1ccn(Cc2ccc(OC(F)(F)F)cc2)n1)[C@](O)(Cn1cncn1)c1ccc(F)cc1F |  |  |  |  | 
8 (≈ 14.7 µM) | 0.5 (≈ 0.921 µM) | 64 (≈ 118 µM) | 0.25 (≈ 0.461 µM) | 2 (≈ 3.68 µM) | ≤ 0.125 | 1 (≈ 1.84 µM) | C[C@@H](OCc1ccn(Cc2c(Cl)cc(Cl)cc2Cl)n1)[C@](O)(Cn1cncn1)c1ccc(F)cc1F |  |  |  |  | 
8 (≈ 16.9 µM) | 0.25 (≈ 0.528 µM) | 32 (≈ 67.5 µM) | ≤ 0.125 | 0.5 (≈ 1.06 µM) | 0.25 (≈ 0.528 µM) | 0.5 (≈ 1.06 µM) | C[C@@H](OCc1ccn(Cc2ccccc2Cl)n1)[C@](O)(Cn1cncn1)c1ccc(F)cc1F |  |  |  |  | 

Compound | MIC [1] [µg/mL] | MIC [2] [µg/mL] | MIC [3] [µg/mL] | MIC [4] [µg/mL] | MIC [5] [µg/mL] | MIC [6] [µg/mL] | MIC [7] [µg/mL] | MIC [8] [µg/mL] | MIC [9] [µg/mL] | MIC [10] [µg/mL] | MIC [11] [µg/mL] | MIC [12] [µg/mL]
C[C@@H](OCc1ccn(Cc2ccc(Cl)cc2F)n1)[C@](O)(Cn1cncn1)c1ccc(F)cc1F | 2 (≈ 4.07 µM) | 0.25 (≈ 0.508 µM) | 0.5 (≈ 1.02 µM) | ≤ 0.125 | 0.5 (≈ 1.02 µM) | 0.25 (≈ 0.508 µM) | 0.25 (≈ 0.508 µM) | 16 (≈ 32.5 µM) | 8 (≈ 16.3 µM) | 16 (≈ 32.5 µM) | 8 (≈ 16.3 µM) | 32 (≈ 65.1 µM)
C[C@@H](OCc1ccn(Cc2ccc(I)cc2)n1)[C@](O)(Cn1cncn1)c1ccc(F)cc1F | 2 (≈ 3.54 µM) | ≤ 0.125 | 0.5 (≈ 0.884 µM) | ≤ 0.125 | 0.25 (≈ 0.442 µM) | 0.25 (≈ 0.442 µM) | ≤ 0.125 | 4 (≈ 7.08 µM) | 16 (≈ 28.3 µM) | 8 (≈ 14.2 µM) | 16 (≈ 28.3 µM) | 16 (≈ 28.3 µM)
